Measurements as given in ChEMBL document CHEMBL2412969, “Antihyperglycemic and antihyperlipidemic activities of 2-(4-[(2-hydroxybenzyl) amino]-phenyl amino-methyl)-phenol in STZ induced diabetic rats” (Eur J Med Chem, 2013).
Calls of active or inactive are those of the source. The calls are words filed in the database; no cut-off is given here.

How the values were obtained:
[1] = system: Rattus norvegicus; assay: Hypoglycemic activity in Wistar albino rat assessed as reduction of blood glucose level at 20 mg/kg, po after 6 hrs (reference value: 73.3 +/- 4.4 mg/dl); assay type: ADME, organism-based; parameters: dose 20 mg/kg, route oral; settings: in vivo
[2] = system: Rattus norvegicus; assay: Renaltoxicity in Wistar albino rat assessed as urea level in blood at 30 mg/kg, po qd for 30 days; assay type: organism-based; parameters: dose 30 mg/kg, route oral; settings: in vivo, 720 h
[3] = system: Rattus norvegicus; assay: Antihyperglycemic activity in Wistar albino rat streptozotocin-induced diabetic model assessed as reduction of blood glucose level at 30 mg/kg, po after 4 hrs (reference value: 373.5 +/- 15.6 mg/dl); assay type: functional
[4] = system: Rattus norvegicus; assay: Antihyperlipidemic activity in Wistar albino rat streptozotocin-induced diabetic model assessed as increase of serum HDL-cholesterol level at 30 mg/kg, po qd for 30 days; assay type: functional, organism-based; parameters: dose 30 mg/kg
[5] = system: Rattus norvegicus; assay: Antihyperglycemic activity in Wistar albino rat streptozotocin-induced diabetic model assessed as reduction of blood glucose level at 20 mg/kg, po after 3 hrs (reference value: 384.33 +/- 17.33 mg/dl); assay type: functional
[6] = system: Rattus norvegicus; assay: Antihyperglycemic activity in Wistar albino rat streptozotocin-induced diabetic model assessed as reduction of blood glucose level at 20 mg/kg, po after 6 hrs (reference value: 372.5 +/- 15.6 mg/dl); assay type: functional
[7] = system: Rattus norvegicus; assay: Hypoglycemic activity in Wistar albino rat assessed as reduction of blood glucose level at 30 mg/kg, po after 5 hrs (reference value: 73.8 +/- 4.5 mg/dl); assay type: ADME, organism-based; parameters: dose 30 mg/kg, route oral; settings: in vivo
[8] = system: Rattus norvegicus; assay: Antihyperglycemic activity in Wistar albino rat streptozotocin-induced diabetic model assessed as reduction of blood glucose level at 20 mg/kg, po after 4 hrs (reference value: 373.5 +/- 15.6 mg/dl); assay type: functional
[9] = system: Rattus norvegicus; assay: Antihyperglycemic activity in Wistar albino rat streptozotocin-induced diabetic model assessed as reduction of fasting blood glucose level at 30 mg/kg, po qd measured on day 15 (reference value: 404.2 +/- 29.15 mg/dl); assay type: functional
[10] = system: Rattus norvegicus; assay: Hepatotoxicity in Wistar albino rat assessed as AST, ALT and ALP level in serum at 30 mg/kg, po qd for 30 days; assay type: toxicity, organism-based; parameters: dose 30 mg/kg, route oral; settings: in vivo, 720 h
[11] = system: Rattus norvegicus; assay: Hypoglycemic activity in Wistar albino rat assessed as reduction of blood glucose level at 20 mg/kg, po after 1 hr (reference value: 71.26 +/- 4.3 mg/dl); assay type: ADME, organism-based; parameters: dose 20 mg/kg, route oral; settings: in vivo
[12] = system: Rattus norvegicus; assay: Antihyperglycemic activity in glucose loaded Wistar albino rat streptozotocin-induced diabetic model assessed as reduction of blood glucose level at 30 mg/kg, po after 3 hrs by oral glucose tolerance test; assay type: functional; parameters: scale not given: the % may be the effect or the level left
[13] = system: Rattus norvegicus; assay: Antihyperglycemic activity in Wistar albino rat streptozotocin-induced diabetic model assessed as reduction of blood glucose level at 30 mg/kg, po after 5 hrs (reference value: 372.2 +/- 16.6 mg/dl); assay type: functional
[14] = system: Rattus norvegicus; assay: Antihyperglycemic activity in Wistar albino rat streptozotocin-induced diabetic model assessed as reduction of blood glucose level at 60 mg/kg, po after 3 hrs (reference value: 384.33 +/- 17.33 mg/dl); assay type: functional
[15] = system: Rattus norvegicus; assay: Antihyperlipidemic activity in Wistar albino rat streptozotocin-induced diabetic model assessed as reduction of serum total cholesterol level at 30 mg/kg, po qd for 30 days; assay type: functional, organism-based; parameters: dose 30 mg/kg
[16] = system: Rattus norvegicus; assay: Hypoglycemic activity in Wistar albino rat assessed as reduction of blood glucose level at 60 mg/kg, po after 6 hrs (reference value: 73.3 +/- 4.4 mg/dl); assay type: ADME, organism-based; parameters: dose 60 mg/kg, route oral; settings: in vivo
[17] = system: Rattus norvegicus; assay: Antihyperglycemic activity in Wistar albino rat streptozotocin-induced diabetic model assessed as reduction of blood glucose level at 30 mg/kg, po after 3 hrs (reference value: 384.33 +/- 17.33 mg/dl); assay type: functional
[18] = system: Rattus norvegicus; assay: Hypoglycemic activity in Wistar albino rat assessed as reduction of blood glucose level at 60 mg/kg, po after 5 hrs (reference value: 73.8 +/- 4.5 mg/dl); assay type: ADME, organism-based; parameters: dose 60 mg/kg, route oral; settings: in vivo
[19] = system: Rattus norvegicus; assay: Renalprotective activity in Wistar albino rat assessed as protection against streptozotocin-induced increase in urea level in blood at 30 mg/kg, po qd for 30 days; assay type: functional
[20] = system: Rattus norvegicus; assay: Hypoglycemic activity in Wistar albino rat assessed as reduction of fasting blood glucose level at 30 mg/kg, po qd measured on day 30 (reference value: 94.8 +/- 10.4 mg/dl); assay type: ADME, organism-based; parameters: dose 30 mg/kg, route oral; settings: in vivo
[21] = system: Rattus norvegicus; assay: Antihyperglycemic activity in Wistar albino rat streptozotocin-induced diabetic model assessed as reduction of blood glucose level at 60 mg/kg, po after 4 hrs (reference value: 373.5 +/- 15.6 mg/dl); assay type: functional
[22] = system: Rattus norvegicus; assay: Hypoglycemic activity in Wistar albino rat assessed as reduction of blood glucose level at 60 mg/kg, po after 1 hr (reference value: 71.26 +/- 4.3 mg/dl); assay type: ADME, organism-based; parameters: dose 60 mg/kg, route oral; settings: in vivo
[23] = system: Rattus norvegicus; assay: Hypoglycemic activity in Wistar albino rat assessed as reduction of blood glucose level at 30 mg/kg, po after 2 hrs (reference value: 76.5 +/- 3.7 mg/dl); assay type: ADME, organism-based; parameters: dose 30 mg/kg, route oral; settings: in vivo
[24] = system: Rattus norvegicus; assay: Antihyperglycemic activity in Wistar albino rat streptozotocin-induced diabetic model assessed as reduction of blood glucose level at 60 mg/kg, po after 2 hrs (reference value: 386.66 +/- 17.5 mg/dl); assay type: functional

Compound: Oc1ccccc1CNc1ccc(NCc2ccccc2O)cc1
- Activity [1]: 70 mg/dL
- Activity [2]: 43.25 mg/dL
- Activity [3]: 215.6 mg/dL
- Activity [4]: Active
- Activity [5]: 301.3 mg/dL
- Activity [6]: 223.28 mg/dL
- Activity [7]: 72.8 mg/dL
- Activity [8]: 265.16 mg/dL
- Activity [9]: 247.5 mg/dL
- Activity [10]: Non-toxic
- Activity [11]: 74.12 mg/dL
- Activity [12]: 56%
- Activity [13]: 172.8 mg/dL
- Activity [14]: 61.4 mg/dL
- Activity [15]: Active
- Activity [16]: 75 mg/dL
- Activity [17]: 248.8 mg/dL
- Activity [18]: 78 mg/dL
- Activity [19]: 54.02 mg/dL
- Activity [20]: 98.67 mg/dL
- Activity [21]: 54.8 mg/dL
- Activity [22]: 75.7 mg/dL
- Activity [23]: 73.66 mg/dL
- Activity [24]: 109.5 mg/dL
